Measured values: patent US8828993B2, “Psychotropic agents having glutamate NMDA activity” (Ramot At Tel-Aviv University Ltd., priority 2006, dated 2014)

Tested on: rats pretreated with MK-801
Assay: Morris Water Maze in rats pretreated with MK-801
Format: in vivo
Settings: rats, MK-801 alone 0.15 mg/kg i.p. on day 1
Procedure: (§1) The Morris Water Maze is a well known test aimed to assess spatial cognitive tasks (Anger, et al., Animal test systems to study behavioral dysfunctions of neurodegenerative disorders, Neurotoxicology, 12, 403-13 (1991)). The maze consists of a circular pool measuring 1.80 m in diameter 60 cm in height. The pool was filled with water (21±1° C.) to a depth of 30 cm. A circular hidden escape platform (10 cm in diameter) was placed just below the water surface. The test room contained several permanent extra maze cues such as the rat housing rack, laboratory table, posters on the walls, etc.
as §1, with “tasks.” for “tasks (Anger, et al., Animal test systems to study behavioral dysfunctions of neurodegenerative disorders, Neurotoxicology, 12, 403-13 (1991)).”
In the experiment rats were given Compound 1 orally on day 1 and the first test begun 90 minute later, six trials per day, for 3 consecutive days, to find the hidden platform (acquisition phase). The escape latency, i.e., the time required by the rat to find and climb onto the platform, was recorded for up to 120 sec. Each rat was allowed to remain on the platform for 30 sec, after which it was removed to its home cage.
A video camera was placed above the center of the pool for tracking the rat, and a video tracking system (Noldus) with online digital output directly fed data into a computer. Data were analyzed using EthoVision automated tracking system software (Noldus).
Compound 1 at both doses decreased the latency to the platform on day 3 of the experiment but not on days 1 and 2.
The relief of cognitive impairments was also shown in the use of Compound 6. […] Compound 6 at 10 mg/kg decreased the latency to the platform on days 2 and 3 of the experimentation.

## C[C@]12N[C@H](Cc3ccccc31)c1ccccc12 [MK-801, reference compound]
  memory tasks (latency to the platform) compared to normal controls: significant impairment
